Literature values, collected in patent publication US9834484B1, “Plant enhancer and a method of using the same” (priority 2016, dated 2017).

Test system: tumor growth
Conditions: some studies show

For β-glucan, the inhibits tumor growth is listed as “more than 95%”.
